Results published in paper PMC6027421 (Pharmaceuticals, 2018).
Read-outs that look alike come from different tables or passages of the source.

Experiments:
[1] = system: T1, CYP17A1 WT; assay: 17α-hydroxylase enzyme kinetics (PROG to 17OH-PROG), WT CYP17A1; format: biochemical, human
T1 construct: (His)4; made in house; host or cells: E. coli JM109
Experimental: (§1) To assess 17α-hydroxylase activity, 10 pmol of CYP17A1 along with 20 pmol purified human POR [17, 31, 32, 34, 62] […] Enzyme kinetic calculations were performed using non-linear regression curve fitting with Prism (GraphPad Software Inc., San Diego, CA, USA). Data represent the mean of three independent experiments.

[2] = biological target: T2, CYP17A1_WT (Homo sapiens, UniProt P05093); assay: Spectral substrate/inhibitor-binding assay, WT CYP17A1; details: 50 nM protein, 22 °C
T2 sequence (P05093 1-508): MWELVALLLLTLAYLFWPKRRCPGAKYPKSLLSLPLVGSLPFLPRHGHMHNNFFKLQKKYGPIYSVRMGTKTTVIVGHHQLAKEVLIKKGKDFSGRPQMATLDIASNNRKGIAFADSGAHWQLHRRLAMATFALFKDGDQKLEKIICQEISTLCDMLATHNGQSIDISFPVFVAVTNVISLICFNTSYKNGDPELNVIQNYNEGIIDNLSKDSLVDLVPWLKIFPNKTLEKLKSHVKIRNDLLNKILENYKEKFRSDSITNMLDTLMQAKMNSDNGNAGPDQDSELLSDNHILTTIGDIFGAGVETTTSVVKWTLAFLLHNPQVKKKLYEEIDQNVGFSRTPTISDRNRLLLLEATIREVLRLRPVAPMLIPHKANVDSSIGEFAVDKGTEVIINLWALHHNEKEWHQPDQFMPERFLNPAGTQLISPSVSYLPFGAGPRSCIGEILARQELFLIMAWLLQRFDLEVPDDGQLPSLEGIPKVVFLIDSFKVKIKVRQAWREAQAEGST
Experimental: Binding of steroid substrates to CYP17A1 was measured by recording the substrate-binding spectra in the range of 340–500 nm on a Perkin Elmer Lambda 25 spectrophotometer. A change in heme absorbance is observed when water molecules at the active site are replaced by steroid substrates. […] To accurately measure the tight binding substrates and inhibitors, a cuvette with 100 mm path length was employed and protein concentration was kept at 50 nM. […] All substrates and abiraterone were dissolved in ethanol and an equal amount of ethanol was added to the reference cuvette and the final concentration of ethanol added to the cuvettes was kept below 2%. After each addition of the compounds, cuvettes were incubated for 5 min at 22 °C before recording the spectra. […] Data were fitted with GraphPad Prism based on the tight binding pattern of substrates to a single binding site.

[3] = biological target: T2, CYP17A1_WT; assay: Inhibition of PROG 17α-hydroxylation, WT CYP17A1; format: biochemical
Experimental: as §1

[4] = system: CYP17A1 WT; details: 17OH-PREG as substrate, with cytochrome b5

Row | Kd ([2]; read-out: Kd) [nM] | IC50 [3] [nM] | Structure (SMILES) | Vmax, 17α-Hydroxylase PROG to 17OH-PROG ([1]; PROG as substrate) [min⁻¹] | Km ([1]; read-out: Km, 17α-Hydroxylase PROG to 17OH-PROG, PROG as substrate, CYP17A1:POR 1:2, 37 °C) [µM] | Cat Eff, 17α-Hydroxylase PROG to 17OH-PROG ([1]; relative to WT) [%] | Vmax, 17,20 Lyase 17OH-PREG to DHEA [4] [min⁻¹] | Km ([4]; read-out: Km, 17,20 Lyase 17OH-PREG to DHEA) [µM] | Kd ([2]; Kd) [nM]
1 | 85 ± 23 | 40 ± 10 | C[C@]12CC[C@H](O)CC1=CC[C@@H]1[C@@H]2CC[C@]2(C)C(c3cccnc3)=CC[C@@H]12 [Abiraterone, abiraterone] |  |  |  |  |  | 
2 | 62 ± 17 | 900 ± 150 | CC(=O)[C@H]1CC[C@H]2[C@@H]3CC=C4C[C@@H](O)CC[C@]4(C)[C@H]3CC[C@]12C [PREG, pregnenolone] |  |  |  |  |  | 

Row | Structure (SMILES) | Kd ([2]; read-out: Kd) [nM] | IC50 [3] [nM] | Vmax, 17α-Hydroxylase PROG to 17OH-PROG ([1]; PROG as substrate) [min⁻¹] | Km ([1]; read-out: Km, 17α-Hydroxylase PROG to 17OH-PROG, PROG as substrate, CYP17A1:POR 1:2, 37 °C) [µM] | Cat Eff, 17α-Hydroxylase PROG to 17OH-PROG ([1]; relative to WT) [%] | Vmax, 17,20 Lyase 17OH-PREG to DHEA [4] [min⁻¹] | Km ([4]; read-out: Km, 17,20 Lyase 17OH-PREG to DHEA) [µM] | Kd ([2]; Kd) [nM]
3 | CC(=O)[C@H]1CC[C@H]2[C@@H]3CCC4=CC(=O)CC[C@]4(C)[C@H]3CC[C@]12C [PROG, Progesterone] | 163 ± 29 |  | 0.71 | 6.1 ± 0.7 | 100 |  |  | 
4 | CC(=O)[C@@]1(O)CC[C@H]2[C@@H]3CC=C4C[C@@H](O)CC[C@]4(C)[C@H]3CC[C@@]21C [17OH-PREG, 17α-hydroxypregnenolone] |  | 1700 ± 200 |  |  |  | 0.025 ± 0.004 | 0.92 ± 0.07 | 142 ± 38
